Assay results taken from patent publication US6770673B1, “Therapeutic uses of arglabin in combination with other chemotherapy agents” (priority 1997, dated 2004).
Marks after values point to notes of the source that are not given here.

What was measured:
P-815 cells [1] = experiment: Viability of transformed cells, trypan blue exclusion; type: cell-based, mouse; details: about 25 μg/ml, 18 hours
Protocol: (§1) Mouse mastocytoma (P-815), myeloma (Z-P3x63Ag8.653 and Pai) and human erthyroleukemia (K-562) cell lines were used. Primary cultures of normal mouse hepatocytes were isolated from mouse liver using collagenase. Mouse splenocytes were isolated using a glass homogenizer. Marrow cells were obtained by washing the bone marrow. See, for example, Shears, S. B. and Kirk, C. J. (1984), Biochem. J. 219:375-382.
(§2) Cells were cultured in RPMI-1640 medium supplemented with 10% fetal calf serum, 100 mM L-glutamine and 50 μg/ml gentamycin at 37° C. under 5% CO2. Cells were seeded into 24-well plates at a density of 50,000 cells/well and grown until near confluency, approximately 2 days, then transferred to 96-well plates at the same density. […] Viability of the cells was determined by trypan blue exclusion. […] Approximately 25% of K-562 and X-653 cells survived at a concentration of 12 μg/ml, and the same proportion of P-815 cells survived at a concentration of about 25 μg/ml.

X-653 cells [2] = experiment: as above; type: cell-based, mouse; details: 12 μg/ml, 18 hours
Protocol: as §1, §2

P-815 cells [3] = experiment: Proliferation of transformed cells, 3H-thymidine incorporation; type: cell-based, mouse; details: 3H-thymidine 18 hours, FIG. 6
Protocol: as §1, §2
(§3) The proliferation of the transformed cells was assessed by incubating ^3H-labeled thymidine in the media for 18 hours. At the end of the specified time period, the proliferation was measured by counting the amount of ^3H-thymidine incorporated. Thymidine incorporation provides a quantitative measure of the rate of DNA synthesis, which is typically directly proportional to the rate of cell division.

X-653 cells [4] = experiment: as above; type: cell-based, mouse; details: 3H-thymidine 18 hours, FIG. 6
Protocol: as §1, §2, §3

Solubility in water = type: physicochemical
Sarcoma-37 = experiment: Inhibition of tumor growth in implanted tumors; type: in vivo, mice and rats; details: dose 30 mg/kg
PC-1 = experiment: Inhibition of tumor growth in implanted tumors; type: in vivo, mice and rats; details: dose 30 mg/kg
[5] = test system: Sarcoma-45 resistant to 5-fluorouracil; experiment: Inhibition of growth of resistant tumour strains; type: in vivo, rats; details: dose 50 mg/kg
sarcoma 45 = experiment: Disturbance of DNA synthesis in tumors (inhibition index); type: in vivo, rats; details: drug resistant sarcoma 45, alone
immune system [6] = experiment: Immunity of rats with initial and prospidin resistant tumors with metastases; type: in vivo; details: sarcolysin, cisplatin
immune system [7] = experiment: Immune system modulation in intact mice; type: in vivo
Protocol: In intact mice, injection of 10 mg/kg increased the total number of leukocytes through an increase in the absolute number of lymphocytes. […] The nitroblue tetrazolium assay was used to assess the function of the neutrophils. […] With a higher dosage, 20 mg/kg, a decrease in nitroblue tetrazolium positive neutrophils was seen, indicating a decrease in function.
The level of the T-suppressor subpopulation was not altered. At a higher dosage (20 mg/kg), overall leukocyte number was not altered, even though B-lymphocyte number decreased and T-lymphocyte decreased to a lesser extent. Natural killer cell number was increased.
The increase in T-lymphocytes was accompanied by an increase in the level of the T-helper subpopulation of T-lymphocytes.

immune system [8] = experiment: Immunological indices in intact August rats; type: in vivo; details: about 50 mg/kg IP daily for 10 days
Source text: Additional immunological data were obtained from an “August” line of rats, weighing 140-160 g, with and without Pliss lymphosarcoma. […] Results are summarized in Table V. Overall, lyophilized-dimethylaminoarglabin hydrochloride stimulated delayed type hypersensitivity, but reduced all other studied indices in intact rats. In rats with Pliss Lymphosarcoma, the immune system was stimulated, as all studied indices increased.

immune system [9] = experiment: Immunologic status of patients of the first clinical trial, rozette-formation and phagocytosis; type: in vivo, human
Protocol: Immunologic status of the patients was evaluated using standard methods of rozette-formation and phagocytosis. These indices were studied prior to treatment, during treatment and after treatment. Blood samples were taken from a finger. […] A general change in the ratio of T-helper lymphocytes to T-suppressor lymphocytes was due to an increase of T-suppressor lymphocytes. […] Total number of leukocytes increased up to 9.4×10^9/L and the total number of lymphocytes increased as well. The levels of all types of immunoglobulins increased.
By day 20 of treatment, all indices returned to normal. In some patients, indices returned to normal by day 14. In patients that were analyzed 30 days after treatment, a significant increase in the number of T-lymphocytes and adhesiveness of neutrophils was observed.

stage IV cancer = experiment: Second clinical trial, 72 patients; type: in vivo, human
Source text: A three to six month lag in dimethylaminoarglabin hydrochloride production halted the first clinical trial. […] Among the patients, 25% had carcinoma of the stomach, 16.7% had liver cancer, 18.1% had lung cancer and the remaining 40.2% had esophageal, breast, ovarian, pancreatic, brain or lymphosarcoma. Patients with poorer states had metastases to the liver (25%), retroperitoneal lymph nodes (25), ascites (22.2%) and exudative pleuritis (11.1%).

cancer = experiment: Case records of selected patients, monochemotherapy; type: in vivo, human
Source text: The following are abstracts from the case records of selected patients, who received dimethylaminoarglabin hydrochloride monochemotherapy.

[10] = Ability to keep normal activities, minimum signs of the disease
[11] = Maintains themself, but is not able to work
[12] = Needs occasional assistance, but is able to maintain themself
[13] = Normal activities are hardly performable, some signs of the disease

## CC1=CCC23OC2(C)CCC2C(CN(C)C)C(=O)OC2C13.Cl (stereo not shown) [Dimethylaminoarglabin hydrochloride]
P-815 cells [1]
  cells survived: Approximately 25%
X-653 cells [2]
  cells survived: Approximately 25%
P-815 cells [3]
  concentration at which proliferation was effectively blocked: 12 µg/mL
X-653 cells [4]
  concentration at which proliferation was effectively blocked: 6 µg/mL
Solubility in water
  solubility in water: soluble in water
Sarcoma-37
  Inhibition of Tumour Growth, % - Sarcoma-37: 78.2* %
PC-1
  Inhibition of Tumour Growth, % - PC-1: 84.3* %
[5]
  Inhibition of Tumour Strains Growth, % - Resistant Forms - Sarcoma-45 to 5-fluorouracil: 62.3%
Sarcoma 45
  DNA inhibition index: 99%
Immune system [6]
  effect on immunodepression caused by cytostatics: softened the immunodepressive effect of cytostatics
Immune system [7]; 10 mg/kg
  total number of leukocytes: increased
Immune system [7]; 10 mg/kg daily IP for 10 days
  B-lymphocytes: remained stable
  overall leukocyte count: increased
Immune system [7]; 20 mg/kg
  leukocyte number: did not result in an overall increase
  nitroblue tetrazolium positive neutrophils: decrease
Immune system [7]; 20 mg/kg daily IP for 10 days
  natural killer cell number: increased
Immune system [8]; Decreased
  Hemagglutination (RHG), Intact Rats After Treatment: 43-53%
  Nitroblue tetrazolium (NBT), Intact Rats After Treatment: 67-91%
  Spontaneous-erythrocyte rosette forming (E-ROK), Intact Rats After Treatment: 64-84%
Immune system [8]; Increased
  Delayed type hypersensitivity, Intact Rats After Treatment: 153-207%
Immune system [9]; days 3-5 of treatment, decreased from 42%
  neutrophil adhesiveness: 28.5%
Immune system [9]; days 3-5 of treatment, increased from 21.5%
  undifferentiated lymphocytes: 42.2%
Immune system [9]; days 3-5 of treatment, reduced from 50%
  number of T-helper lymphocytes: 37.3%
Immune system [9]; days 3-5 of treatment, reduced from 57%
  number of T-lymphocytes: 40.1%
Immune system [9]; during treatment
  total number of leukocytes increased up to: up to 9.4 ×10^9/L
Stage IV cancer; 8 of 72
  patients with no response: 11.1%
Stage IV cancer; 64 of 72
  patients responded to therapy: 88.9%
Stage IV cancer; 72 patients
  % of Patients - Absence of dynamics or stabilization: 31.9%
  % of Patients - Partial regression over or equal to 50% decrease of tumor or metastasis: 61.1%
  % of Patients - Progression: 7.0%
Stage IV cancer; [10]
  Number of Patients % - Karnofsky scale 90: 41.7%
  Number of Patients abs, N - Karnofsky scale 90: 30
Stage IV cancer; After Treatment (before treatment 2.0)
  Thrombocytes, mean index of peripheral blood: 2.8 thsd
Stage IV cancer; After Treatment (before treatment 2.3-3.0)
  Erythrocytes, mean index of peripheral blood: 3.0 10^12/l-10^9/l
Stage IV cancer; After Treatment (before treatment 4.5-5.5)
  Leukocytes, mean index of peripheral blood: 4.0 10^12/l-10^9/l
Stage IV cancer; After Treatment (before treatment 8-15)
  Lymphocytes, mean index of peripheral blood: 15-20
Stage IV cancer; During Treatment (before treatment 2.0)
  Thrombocytes, mean index of peripheral blood: 2.3 thsd
Stage IV cancer; During Treatment (before treatment 2.3-3.0)
  Erythrocytes, mean index of peripheral blood: 2.4-3.0 10^12/l-10^9/l
Stage IV cancer; During Treatment (before treatment 4.5-5.5)
  Leukocytes, mean index of peripheral blood: 3.5-4.0 10^12/l-10^9/l
Stage IV cancer; During Treatment (before treatment 8-15)
  Lymphocytes, mean index of peripheral blood: 28-35
Stage IV cancer; Extreme invalidism
  Number of Patients % - Karnofsky scale 30: 4.2%
  Number of Patients abs, N - Karnofsky scale 30: 3
Stage IV cancer; [11]
  Number of Patients % - Karnofsky scale 70: 33.3%
  Number of Patients abs, N - Karnofsky scale 70: 24
Stage IV cancer; [12]
  Number of Patients % - Karnofsky scale 60: 6.9%
  Number of Patients abs, N - Karnofsky scale 60: 5
Stage IV cancer; [13]
  Number of Patients % - Karnofsky scale 80: 13.9%
  Number of Patients abs, N - Karnofsky scale 80: 10
Stage IV cancer; patients, hydrochloride
  side effects: No side effects
cancer; Patient A, case number 543, after the first course
  condition of patient with brain tumor: condition was stabilized
cancer; Patient M, case number 305, breast cancer, 5 courses
  infiltration of the right breast decreased: 50%
cancer; patient, case number N2225, embryonal carcinoma of the liver, 120 mg IV daily
  outcome of liver cancer: complete recovery
